Test results: PubChem BioAssay AID192 (DTP/NCI, 2004)
Toxic doses and inconclusive results are not listed.

Test system: BDF1 mice, B16 melanoma ip, median survival T/C
Assay: NCI In Vivo Anticancer Drug Screen. Data for tumor model B16 Melanoma (intraperitoneal) in B6D2F1 (BDF1) mice
Details: endpoint: median survival time, higher = longer survival
Outline: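 Vehicle-treated animals serve as the reference (C); treated animals (T) are scored for survival or tumor size after tumor transplantation.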

[1] = dose: 6.25 mg/kg/injection, schedule: Q01DX009 (ip), vehicle: saline with Tween-80
[2] = dose: 12.5 mg/kg/injection, schedule: Q01DX009 (ip), vehicle: saline with Tween-80
[3] = dose: 25.0 mg/kg/injection, schedule: Q01DX009 (ip), vehicle: saline with Tween-80
[4] = dose: 100.0 mg/kg/injection, schedule: Q04DX003 (ip), vehicle: Klucel (hydroxypropylcellulose) (HPC)
[5] = dose: 50.0 mg/kg/injection, schedule: Q01DX009 (ip), vehicle: Klucel (hydroxypropylcellulose) (HPC)
[6] = dose: 100.0 mg/kg/injection, schedule: Q01DX009 (ip), vehicle: Klucel (hydroxypropylcellulose) (HPC)
[7] = dose: 6.25 mg/kg/injection, schedule: Q01DX009 (ip), vehicle: Klucel (hydroxypropylcellulose) (HPC)
[8] = dose: 12.5 mg/kg/injection, schedule: Q01DX009 (ip), vehicle: Klucel (hydroxypropylcellulose) (HPC)
[9] = dose: 25.0 mg/kg/injection, schedule: Q01DX009 (ip), vehicle: Klucel (hydroxypropylcellulose) (HPC)
[10] = dose: 200.0 mg/kg/injection, schedule: Q01DX009 (ip), vehicle: Klucel (hydroxypropylcellulose) (HPC)
[11] = dose: 6.25 mg/kg/injection, schedule: Q01DX009 (ip), vehicle: saline
[12] = dose: 12.5 mg/kg/injection, schedule: Q01DX009 (ip), vehicle: saline

`COc1cc([C@@H]2c3cc4c(cc3[C@@H](OC3OC5COC(C)OC5C(O)C3O)[C@H]3COC(=O)[C@H]23)OCO4)cc(OC)c1O` (stereo partly drawn) was tested, and the T/C (dose: 1.73 mg/kg/injection, schedule: Q01DX009 (ip), vehicle: clinical formulation) was 206 % of control, the T/C (dose: 2.0 mg/kg/injection, schedule: Q01DX009 (ip), vehicle: Klucel (hydroxypropylcellulose) (HPC)) was 150 % of control and the T/C (dose: 2.88 mg/kg/injection, schedule: Q01DX009 (ip), vehicle: clinical formulation) was 240 % of control. For the same molecule, the T/C (dose: 4.0 mg/kg/injection, schedule: Q01DX009 (ip), vehicle: Klucel (hydroxypropylcellulose) (HPC)) was 111 % of control, the T/C (dose: 4.8 mg/kg/injection, schedule: Q01DX009 (ip), vehicle: clinical formulation) was 240 % of control and the T/C (dose: 5.0 mg/kg/injection, schedule: Q01DX009 (ip), vehicle: saline) was 252 % of control. For the same molecule, the T/C (dose: 5.0 mg/kg/injection, schedule: Q04DX003 (ip), vehicle: suspension in saline) was 202 % of control, the T/C (dose: 8.0 mg/kg/injection, schedule: Q01DX009 (ip), vehicle: Klucel (hydroxypropylcellulose) (HPC)) was 276 % of control and the T/C (dose: 8.0 mg/kg/injection, schedule: Q01DX009 (ip), vehicle: clinical formulation) was 259 % of control. The T/C (dose: 8.0 mg/kg/injection, schedule: Q04DX003 (ip), vehicle: suspension in saline) was 180 % of control, the T/C (dose: 10.0 mg/kg/injection, schedule: Q01DX009 (ip), vehicle: saline) was 285 % of control and the T/C (dose: 10.0 mg/kg/injection, schedule: Q04DX003 (ip), vehicle: suspension in saline) was 208 % of control. For the same molecule, the T/C (dose: 13.3 mg/kg/injection, schedule: Q01DX009 (ip), vehicle: clinical formulation) was 53 % of control, the T/C (dose: 16.0 mg/kg/injection, schedule: Q04DX003 (ip), vehicle: suspension in saline) was 207 % of control and the T/C (dose: 20.0 mg/kg/injection, schedule: Q04DX003 (ip), vehicle: suspension in saline) was 236 % of control. For the same molecule, the T/C (dose: 32.0 mg/kg/injection, schedule: Q04DX003 (ip), vehicle: suspension in saline) was 85 % of control, the T/C (dose: 40.0 mg/kg/injection, schedule: Q04DX003 (ip), vehicle: suspension in saline) was 241 % of control and the T/C (dose: 64.0 mg/kg/injection, schedule: Q04DX003 (ip), vehicle: suspension in saline) was 63 % of control.

`O=C(Nc1ccc(C2=NCCN2)cc1)c1ccc(C(=O)Nc2ccc(C3=NCCN3)cc2)c(Cl)c1` was tested, and the T/C (dose: 3.12 mg/kg/injection, schedule: Q01DX009 (ip), vehicle: saline with Tween-80) was 93 % of control, the T/C [1] was 104 % of control and the T/C (dose: 8.0 mg/kg/injection, schedule: Q01DX009 (ip), vehicle: saline with Tween-80) was 104 % of control. For the same molecule, the T/C [2] was 108 % of control, the T/C (dose: 16.0 mg/kg/injection, schedule: Q01DX009 (ip), vehicle: saline with Tween-80) was 102 % of control and the T/C [3] was 105 % of control.

For `CC1(C)N=C(N)N=C(N)N1c1ccc(OCCNS(=O)(=O)c2cccc(S(=O)(=O)F)c2)c(Cl)c1`, the T/C [2] was 107 % of control, the T/C [3] was 113 % of control and the T/C (dose: 50.0 mg/kg/injection, schedule: Q01DX009 (ip), vehicle: saline with Tween-80) was 120 % of control.

For `CSc1cc(=O)n2c3ccccc3c3ccnc1c32`, the T/C (dose: 0.63 mg/kg/injection, schedule: Q01DX009 (ip), vehicle: saline with Tween-80) was 104 % of control, the T/C (dose: 1.25 mg/kg/injection, schedule: Q01DX009 (ip), vehicle: saline with Tween-80) was 110 % of control and the T/C (dose: 2.5 mg/kg/injection, schedule: Q01DX009 (ip), vehicle: saline with Tween-80) was 101 % of control. For the same molecule, the T/C (dose: 5.0 mg/kg/injection, schedule: Q01DX009 (ip), vehicle: saline with Tween-80) was 108 % of control.

`CNC(=O)Nc1cccc2c(=O)[nH][nH]c(=O)c12` was tested, and the T/C [4] was 112 % of control, the T/C (dose: 200.0 mg/kg/injection, schedule: Q04DX003 (ip), vehicle: Klucel (hydroxypropylcellulose) (HPC)) was 102 % of control and the T/C (dose: 400.0 mg/kg/injection, schedule: Q04DX003 (ip), vehicle: Klucel (hydroxypropylcellulose) (HPC)) was 91 % of control.

`C=C1CC(OC(=O)C(C)(O)CCl)C2C(=C)C(=O)OC2C2C1CC(O)C2(O)CCl` (stereo not drawn) was tested, and the T/C (dose: 3.0 mg/kg/injection, schedule: Q01DX009 (ip), vehicle: Klucel (hydroxypropylcellulose) (HPC)) was 104 % of control, the T/C (dose: 6.0 mg/kg/injection, schedule: Q01DX009 (ip), vehicle: Klucel (hydroxypropylcellulose) (HPC)) was 101 % of control and the T/C (dose: 12.0 mg/kg/injection, schedule: Q01DX009 (ip), vehicle: Klucel (hydroxypropylcellulose) (HPC)) was 101 % of control. For the same molecule, the T/C (dose: 24.0 mg/kg/injection, schedule: Q01DX009 (ip), vehicle: Klucel (hydroxypropylcellulose) (HPC)) was 93 % of control.

With `CC(=O)C(C)(NCc1ccccc1)c1ccccc1` (stereo not drawn) the T/C [5] was 86 % of control and the T/C [6] was 89 % of control.

With `COc1c(CNC(=O)CCl)cc2[nH]c(C)cc2c1CNC(=O)CCl` the T/C [7] was 101 % of control, the T/C [8] was 106 % of control and the T/C [9] was 103 % of control. The T/C [5] was 104 % of control, the T/C [6] was 108 % of control and the T/C [10] was 97 % of control.

With `CCCCCCCCCCCCCCCCCCNC(=O)Nc1cc(C)ccc1C` the T/C (dose: 25.0 mg/kg/injection, schedule: Q01DX009 (ip), vehicle: gum acacia) was 100 % of control, the T/C (dose: 50.0 mg/kg/injection, schedule: Q01DX009 (ip), vehicle: gum acacia) was 93 % of control and the T/C (dose: 100.0 mg/kg/injection, schedule: Q01DX009 (ip), vehicle: gum acacia) was 107 % of control.

`Cc1cc(C)c(CCl)cc1CCl` was tested, and the T/C (dose: 10.0 mg/kg/injection, schedule: Q01DX009 (ip), vehicle: saline with Tween-80) was 110 % of control, the T/C (dose: 20.0 mg/kg/injection, schedule: Q01DX009 (ip), vehicle: saline with Tween-80) was 95 % of control and the T/C (dose: 20.0 mg/kg/injection, schedule: Q04DX003 (ip), vehicle: saline with Tween-80) was 100 % of control. For the same molecule, the T/C (dose: 40.0 mg/kg/injection, schedule: Q01DX009 (ip), vehicle: saline with Tween-80) was 102 % of control and the T/C (dose: 40.0 mg/kg/injection, schedule: Q04DX003 (ip), vehicle: saline with Tween-80) was 100 % of control.

For `O=C(O)C1(C(=O)O)CCCCC1.[NH2-].[NH2-].[Pt+2]`, the T/C [11] was 159 % of control and the T/C [12] was 188 % of control.

With `O=C1c2ccccc2C(=O)c2c1ccc(C(=O)O)c2-c1ccc2ccccc2c1` the T/C [6] was 103 % of control, the T/C [10] was 99 % of control and the T/C (dose: 400.0 mg/kg/injection, schedule: Q01DX009 (ip), vehicle: Klucel (hydroxypropylcellulose) (HPC)) was 96 % of control.

For `COc1cc2c(cc1Oc1c(Oc3c(O)c(OC)cc4c3C(CC(C)C)N(C)CC4)c(OC)cc3c1C(CC(C)C)N(C)CC3)C(CC(C)C)N(C)CC2` (stereo not drawn), the T/C [8] was 100 % of control, the T/C [9] was 96 % of control and the T/C [5] was 110 % of control.

With `O=[N+]([O-])c1cccc(S(=O)(=O)Nc2ccccc2Cl)c1` the T/C (dose: 100.0 mg/kg/injection, schedule: Q01DX009 (ip), vehicle: saline with Tween-80) was 90 % of control, the T/C (dose: 200.0 mg/kg/injection, schedule: Q01DX009 (ip), vehicle: saline with Tween-80) was 95 % of control and the T/C (dose: 400.0 mg/kg/injection, schedule: Q01DX009 (ip), vehicle: saline with Tween-80) was 95 % of control.

For `COc1ccccc1NC(=O)Nc1cccc(Cl)c1`, the T/C [1] was 105 % of control, the T/C [2] was 97 % of control and the T/C [3] was 100 % of control.

With `C=C1C(=O)OC2CC3(C)CC(O)C(O)C(=C)C3CC12` (stereo not drawn) the T/C [5] was 104 % of control and the T/C [6] was 101 % of control.

For `O=C1C(=O)c2ccccc2-c2ccccc21`, the T/C (dose: 1.56 mg/kg/injection, schedule: Q01DX009 (ip), vehicle: saline with Tween-80) was 100 % of control, the T/C (dose: 3.13 mg/kg/injection, schedule: Q01DX009 (ip), vehicle: saline with Tween-80) was 89 % of control and the T/C [7] was 102 % of control. For the same molecule, the T/C [1] was 97 % of control, the T/C [8] was 101 % of control and the T/C [2] was 100 % of control. For the same molecule, the T/C (dose: 12.5 mg/kg/injection, schedule: Q04DX003 (ip), vehicle: Klucel (hydroxypropylcellulose) (HPC)) was 98 % of control, the T/C [9] was 104 % of control and the T/C (dose: 25.0 mg/kg/injection, schedule: Q04DX003 (ip), vehicle: Klucel (hydroxypropylcellulose) (HPC)) was 89 % of control. The T/C [5] was 109 % of control, the T/C (dose: 50.0 mg/kg/injection, schedule: Q04DX003 (ip), vehicle: Klucel (hydroxypropylcellulose) (HPC)) was 98 % of control and the T/C (dose: 50.0 mg/kg/injection, schedule: Q04DX003 (ip), vehicle: saline with Tween-80) was 166 % of control. For the same molecule, the T/C [4] was 89 % of control.

For `CC(N)Cc1ccc2c(c1)OCO2` (stereo not drawn), the T/C (dose: 3.12 mg/kg/injection, schedule: Q01DX009 (ip), vehicle: saline) was 119 % of control, the T/C [11] was 116 % of control and the T/C [12] was 102 % of control. The T/C (dose: 25.0 mg/kg/injection, schedule: Q01DX009 (ip), vehicle: saline) was 108 % of control and the T/C (dose: 50.0 mg/kg/injection, schedule: Q01DX009 (ip), vehicle: saline) was 116 % of control.
